Measurements reported in article PMC3071284 (Bioorganic & medicinal chemistry, 2011).

Assays:
T. gondii tachyzoites = T. gondii tachyzoites growth inhibition assay; type: cell-based, Toxoplasma gondii; details: result in words
[1] = cited from earlier work
[2] = target: T1, T. cruzi farnesyl diphosphate synthase (TcFPPS) (Trypanosoma cruzi, UniProt Q8WS26); details: cited from earlier work
T1 sequence (Q8WS26 64-425 limits assumed): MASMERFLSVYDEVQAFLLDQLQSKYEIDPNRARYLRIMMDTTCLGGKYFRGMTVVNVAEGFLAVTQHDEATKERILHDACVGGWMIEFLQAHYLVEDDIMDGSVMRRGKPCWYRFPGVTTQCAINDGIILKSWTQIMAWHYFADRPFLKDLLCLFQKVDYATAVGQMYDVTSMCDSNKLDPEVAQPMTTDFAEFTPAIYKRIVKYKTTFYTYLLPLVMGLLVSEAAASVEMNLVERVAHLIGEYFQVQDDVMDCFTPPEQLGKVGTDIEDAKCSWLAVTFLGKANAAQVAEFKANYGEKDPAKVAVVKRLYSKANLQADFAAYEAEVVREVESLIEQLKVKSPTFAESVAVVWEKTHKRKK

T. cruzi-infected mice = details: cited from earlier work

Structure (SMILES): CCCCCCCCCCNCC(P(=O)(O)O)P(=O)(O)O [Compound 24, 1-[(n-Dec-1-ylamino)ethyl] 1,1-bisphosphonic Acid]
- antiparasitic activity against T. gondii cells (T. gondii tachyzoites): practically devoid of antiparasitic activity

Structure (SMILES): CN(C)c1ccc(C(=C2C=CC(=[N+](C)C)C=C2)c2ccc(N(C)C)cc2)cc1 [Crystal violet]
- carcinogenicity in in vivo assays [1]: carcinogenic

Structure (SMILES): CCCCCCNCC(P(=O)(O)O)P(=O)(O)O [Compound 8]
- mode of inhibition of TcFPPS [2]: competitive inhibitor

Structure (SMILES): O=P(O)(O)C(O)(Cc1cccnc1)P(=O)(O)O [risedronate]
- survival of T. cruzi-infected mice (T. cruzi-infected mice): significantly increase survival
